Read-outs that look alike come from different tables or passages of the source.
Experiments:
CLK1 = CLK1 (Homo sapiens, UniProt P49759); set-up: method as in Funnell et al, 2017; settings: enzymatic assay; ref Funnell et al, 2017; read-out: IC50 (nmol/L) CLK1; cited from earlier work
DYRK1A = target: T1, DYRK1A (Homo sapiens, UniProt Q13627); set-up: method as in Funnell et al, 2017; settings: enzymatic assay; ref Funnell et al, 2017; read-out: IC50 (nmol/L) DYRK1A; cited from earlier work
T1 construct: purchased DiscoverX Corporation (Fremont, CA, USA)

HCT116 cells = test: Modulation of the 125 T-025-dependent skipped exons (RNA-Seq, MISO); format: cell-based; settings: |ΔPSI| > 0.4, T3 AS events from Funnell et al, 2017
Method: The RNA‐Seq was performed at Takara Bio Inc. (Shiga, Japan) or Macrogen, Inc. (Seoul, South Korea) by using HiSeq2000 or HiSeq4000 (Illumina Inc., San Diego, CA, USA). Splicing bioinformatics analysis using MISO and pathway analysis using Cytoscape (Shannon et al, 2003) were performed as previously described (Funnell et al, 2017). Briefly, the BAM alignment files produced by TopHat and the files for AS events (for hg19) provided by MISO were used as inputs. […] For clustering, we used 1,320 splicing events with ΔPSI > 0.4, the BF > 20, and SD of PSI for each splicing event > 0.2. Hierarchical clustering was performed using heatmap3 from the R package.

[1] = test system: MYC-inducible SK-MEL-28 cells; test: Growth inhibition in MYC-inducible SK-MEL-28 cells; format: cell-based; settings: Homo sapiens, read-out: IC50 (nmol/L) (95% CI)
Method: To obtain an MYC‐inducible cell line, SK‐MEL‐28 cells were engineered via stable lentiviral transduction to express an empty pTRIPZ vector (Open Biosystems/GE Healthcare Dharmacon Inc., Lafayette, CO, USA) or a Tet‐inducible promoter‐driven MYC gene. Infected cells were selected with geneticin for 4 days, left to recover for 24 h, and treated with 0.5 μg/ml Dox (Sigma‐Aldrich, St. Louis, MO, USA). U2OS cells were similarly engineered to express an empty pBABE vector (Cell Biolabs, Inc., San Diego, CA, USA) or a MYC‐estrogen receptor (MYC‐ER) transgene via 3 days of puromycin selection followed by treatment with 0.5 μmol/l tamoxifen (Sigma‐Aldrich).
Silencer Select Pre-designed siRNAs purchased from Ambion (Thermo Fisher
Scientific) were used. The siRNA ID# and sequence are shown below: […]
Cell proliferation assay, Caspase-3/7 assay
Cell proliferation was measured using CellTiter-Glo luminescent cell viability
assay (Promega, Fitchburg, WI, U.S.A.). Caspase-3/7 activity was measured using
Caspase-Glo 3/7 Assay Systems (Promega). Luminescence of each well was measured
using ARVO Light (PerkinElmer Inc., Waltham, MA, U.S.A.). The IC50 value and 95%
confidential intervals were estimated using GraphPad Prism 5 (GraphPad Software,
Inc., La Jolla, CA, U.S.A.). […]

DYRK1B = DYRK1B (Homo sapiens, UniProt Q9Y463); set-up: method as in Funnell et al, 2017; settings: enzymatic assay; ref Funnell et al, 2017; read-out: IC50 (nmol/L) DYRK1B; cited from earlier work
Sequence of DYRK1B (Q9Y463 whole entry): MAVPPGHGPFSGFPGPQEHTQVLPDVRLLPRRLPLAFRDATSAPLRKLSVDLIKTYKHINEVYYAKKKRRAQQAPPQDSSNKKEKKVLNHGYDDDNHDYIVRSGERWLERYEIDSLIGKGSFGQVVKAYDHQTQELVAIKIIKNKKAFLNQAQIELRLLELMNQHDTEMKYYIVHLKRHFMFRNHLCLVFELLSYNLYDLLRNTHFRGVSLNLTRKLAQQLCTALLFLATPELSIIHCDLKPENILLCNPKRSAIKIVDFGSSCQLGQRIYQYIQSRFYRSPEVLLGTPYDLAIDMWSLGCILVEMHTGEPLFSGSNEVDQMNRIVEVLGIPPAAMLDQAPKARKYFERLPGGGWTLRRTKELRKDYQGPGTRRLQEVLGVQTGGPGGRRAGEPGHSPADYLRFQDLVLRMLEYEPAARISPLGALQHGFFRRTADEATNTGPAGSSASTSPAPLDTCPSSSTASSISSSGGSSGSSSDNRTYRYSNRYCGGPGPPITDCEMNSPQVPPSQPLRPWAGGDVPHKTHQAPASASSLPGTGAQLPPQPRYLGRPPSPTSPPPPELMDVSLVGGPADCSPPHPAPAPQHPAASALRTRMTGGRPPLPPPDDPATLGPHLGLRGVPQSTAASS

Sequence of CLK1 (P49759 whole entry): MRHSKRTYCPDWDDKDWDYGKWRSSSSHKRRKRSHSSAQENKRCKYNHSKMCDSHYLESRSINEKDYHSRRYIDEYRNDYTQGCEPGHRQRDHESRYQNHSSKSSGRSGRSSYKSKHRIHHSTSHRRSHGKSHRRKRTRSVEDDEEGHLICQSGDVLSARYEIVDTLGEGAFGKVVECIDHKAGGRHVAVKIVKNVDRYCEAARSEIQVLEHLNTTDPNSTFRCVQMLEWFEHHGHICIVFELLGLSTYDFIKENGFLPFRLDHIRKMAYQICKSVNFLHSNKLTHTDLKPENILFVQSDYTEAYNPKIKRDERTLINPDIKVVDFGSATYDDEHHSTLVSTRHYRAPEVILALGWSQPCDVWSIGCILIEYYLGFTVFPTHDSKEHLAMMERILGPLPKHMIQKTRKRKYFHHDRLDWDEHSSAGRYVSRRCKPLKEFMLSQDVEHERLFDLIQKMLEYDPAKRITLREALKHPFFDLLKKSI

CN1CCN(C(=O)C(C)(C)c2ccc(C(=O)Nc3cn4cc(-c5ccncc5)ccc4n3)cc2)CC1 [T3]
IC50 (CLK1): 0.63 nmol/L | IC50 (DYRK1A): 230 nmol/L | share of the 125 T-025-dependent SEs also changed (HCT116 cells; T3 at 500 nmol/l): 58.4% | share of the 125 T-025-dependent SEs also changed (HCT116 cells; T3 at 1,000 nmol/l): 77.6% | IC50 ([1]; SK-MEL-28, 72 h, myc - Dox): 471 nmol/L | IC50 ([1]; SK-MEL-28, 72 h, vector - Dox): 459 nmol/L | IC50 ([1]; SK-MEL-28, myc + Dox (48 h pretreatment), 72 h): 294 nmol/L | IC50 ([1]; SK-MEL-28, vector + Dox (48 h pretreatment), 72 h): 471 nmol/L | IC50 (DYRK1B): 260 nmol/L
